From patent publication US8415272B2, “Quinoline derivatives and their use as fungicides” (Syngenta Crop Protection LLC, priority 2008, dated 2013)

Experiments:
Phytophthora infestans = assay: whole plant or invertebrate; assay type: in vivo; conditions: in Solanum lycopersicum, foliar, 96 h, read-out: control of fungal infection, Phytophthora infestans
Plasmopara viticola = assay: Leaf disk assay, Plasmopara viticola (downy mildew of grapevine), preventive; assay type: in vivo; conditions: foliar, 168 h, grapevine leaf disks, assessed seven days after inoculation, read-out: control of fungal infection, Plasmopara viticola
[1] = system: Erysiphe graminis f.sp. tritici; assay: Leaf disk assay, Erysiphe graminis f.sp. tritici (wheat powdery mildew), preventive; assay type: in vivo; conditions: Blumeria graminis, foliar, 96 h, wheat leaf segments, assessed four days after inoculation, read-out: control of fungal infection, Erysiphe graminis f.sp. tritici
Summary of the method: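 Wheat leaf segments on agar were sprayed with compound at 200 ppm (DMSO stock diluted in water). After 12–24 h drying they were inoculated with powdery mildew spores. Preventive activity was scored 4 days after inoculation.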

Pyricularia oryzae = assay: whole plant or invertebrate; assay type: in vivo; conditions: foliar, 96 h, read-out: control of fungal infection, Pyricularia oryzae
[2] = system: Puccinia recondita f.sp. tritici; assay: Leaf disk assay, Puccinia recondita f.sp. tritici (wheat brown rust), preventive; assay type: in vivo; conditions: foliar, 216 h, wheat leaf segments, assessed nine days after inoculation, read-out: control of fungal infection, Puccinia recondita f.sp. tritici
Septoria nodorum = assay: Leaf disk assay, Septoria nodorum (wheat glume blotch), preventive; assay type: in vivo; conditions: Parastagonospora nodorum, foliar, 96 h, wheat leaf segments, assessed four days after inoculation, read-out: control of fungal infection, Septoria nodorum
Septoria tritici = assay: Growth inhibition in nutrient broth, Septoria tritici (leaf blotch), photometric; assay type: cell-based; conditions: Zymoseptoria tritici, PDB broth, 24 C, 72 hrs, read-out: control of fungal infection, Septoria tritici
Pythium ultimum = assay: Growth inhibition in potato dextrose broth, Pythium ultimum (damping off), photometric; assay type: cell-based; conditions: Globisporangium ultimum, 24° C., 48 hours, read-out: control of fungal infection, Pythium ultimum
Summary of the method: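 Growth inhibition was read photometrically at 48 hours after incubation at 24° C. Test compound was diluted from DMSO to 20 ppm in water and combined with potato dextrose broth seeded with Pythium ultimum mycelial fragments.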

Pyrenophora teres = assay: Leaf disk assay, Pyrenophora teres (barley net blotch), preventive; assay type: in vivo; conditions: foliar, 96 h, barley leaf segments, assessed four days after inoculation, read-out: control of fungal infection, Pyrenophora teres
Summary of the method: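 Barley leaf segments on agar were sprayed with compound at 200 ppm (from DMSO stock diluted in water) and dried for 12-24 h before inoculation with a Pyrenophora teres spore suspension. Preventive fungicidal activity was scored 4 days after inoculation.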

Fusarium culmorum = assay: Growth inhibition in nutrient broth, Fusarium culmorum (root rot), photometric; assay type: cell-based; conditions: 48 h, read-out: control of fungal infection, Fusarium culmorum
Summary of the method: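 Fusarium culmorum conidia in potato dextrose broth were added to compounds in DMSO. Plates were incubated at 24 C for 48 hrs, with growth inhibition read photometrically. […]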

Botrytis cinerea = assay: Leaf disk assay, Botrytis cinerea (grey mould) on bean, preventive; assay type: in vivo; conditions: foliar, 96 h, bean leaf disks, assessed four days after inoculation, read-out: control of fungal infection, Botrytis cinerea

Row | Compound | melting point [°C] | pest or weed control at 200 ppm (Phytophthora infestans) [%] | pest or weed control at 200 ppm (Plasmopara viticola) [%] | pest or weed control at 200 ppm [1] [%] | pest or weed control at 200 ppm (Pyricularia oryzae) [%] | pest or weed control at 200 ppm [2] [%] | pest or weed control at 200 ppm (Septoria nodorum) [%] | inhibition of growth at 60 ppm (Septoria tritici) [%] | inhibition of growth at 20 ppm (Pythium ultimum) [%] | pest or weed control at 200 ppm (Pyrenophora teres) [%] | inhibition of growth at 60 ppm (Fusarium culmorum) [%] | pest or weed control at 200 ppm (Botrytis cinerea) [%]
1 | C#Cc1cnc2ccc(OC(SC)C(=O)N(O)C(C)(C)C)cc2c1 (stereo not drawn) [Compound 147, N-tert-Butyl-2-(3-ethynyl-quinolin-6-yloxy)-N-hydroxy-2-methylsulfanyl-acetamide] | 164 |  |  |  |  |  |  |  |  |  |  | 
2 | C#Cc1cnc2ccc(OC(SC)C(=O)NC(C)(C#C)CO)cc2c1 (stereo not drawn) [Compound 160, 2-(3-ethynyl-quinolin-6-yloxy)-N-(1-hydroxymethyl-1-methylprop-2-ynyl)-2-methylsulfanyl-acetamide] | 149 to 150 |  |  |  |  |  |  |  |  |  |  | 
3 | C#Cc1cnc2ccc(OC(SC)C(=O)NC(C)(C)CO)cc2c1 (stereo not drawn) [Compound 168, 2-(3-ethynyl-quinolin-6-yloxy)-N-(2-hydroxy-1,1-dimethyl-ethyl)-2-methylsulfanyl-acetamide] | 149 to 151 |  |  |  |  |  |  |  |  |  |  | 
4 | C#Cc1cnc2ccc(OC(SC)C(=O)NC(C)(C#C)CO)cc2c1 (stereo not drawn) [Compound 173, 2-(3-Ethynyl-quinolin-6-yloxy)-N-(1-hydroxymethyl-1-methyl-prop-2-ynyl)-2-methylsulfanyl-acetamide] | 150 to 155 |  |  |  |  |  |  |  |  |  |  | 
5 | C#Cc1cnc2cc(F)c(OC(SC)C(=O)NC(C)(C#N)CO)cc2c1 (stereo not drawn) [Compound 174, N-(1-Cyano-2-hydroxy-1-methyl-ethyl)-2-(3-ethynyl-7-fluoro-quinolin-6-yloxy)-2-methylsulfanyl-acetamide] | 80 to 83 |  |  |  |  |  |  |  |  |  |  | 
6 | C#Cc1cnc2ccc(OC(SC)C(=O)NC3COC3)cc2c1 (stereo not drawn) [Compound 178, 2-(3-Ethynyl-quinolin-6-yloxy)-2-methylsulfanyl-N-oxetan-3-yl-acetamide] | 98 to 100 |  |  |  |  |  |  |  |  |  |  | 
7 | C#Cc1cnc2ccc(OC(SC)C(=O)NC3(C)COC3)cc2c1 (stereo not drawn) [Compound 186, 2-(3-Ethynyl-quinolin-6-yloxy)-N-(3-methyl-oxetan-3-yl)-2-methylsulfanyl-acetamide] | 61 to 65 |  |  |  |  |  |  |  |  |  |  | 
8 | C#Cc1cnc2c(Cl)cc(OC(SC)C(=O)NC3(C)CCC3)cc2c1 (stereo not drawn) [Compound 203, 2-(8-Chloro-3-ethynyl-quinolin-6-yloxy)-N-(1-methyl-cyclobutyl)-2-methylsulfanyl-acetamide] | 121 to 123 |  |  |  |  |  |  |  |  |  |  | 
9 | C#Cc1cnc2c(F)cc(OC(SC)C(=O)NC(C)C)cc2c1 (stereo not drawn) [Compound 222, 2-(3-Ethynyl-8-fluoro-quinolin-6-yloxy)-N-isopropyl-2-methylsulfanyl-acetamide] | 135 to 136 |  |  |  |  |  |  |  |  |  |  | 
10 | C#Cc1cnc2ccc(OC(SC)C(=O)NC3CSC3)cc2c1 (stereo not drawn) [Compound 223, 2-(3-Ethynyl-quinolin-6-yloxy)-2-methylsulfanyl-N-thietan-3-yl-acetamide] | 150 to 152 |  |  |  |  |  |  |  |  |  |  | 
11 | C#Cc1cnc2ccc(OC(SC)C(=O)NC3(C)CSC3)cc2c1 (stereo not drawn) [Compound 224, 2-(3-Ethynyl-quinolin-6-yloxy)-2-methylsulfanyl-N-(3-methyl-thietan-3-yl)-acetamide] | 132 to 134 |  |  |  |  |  |  |  |  |  |  | 
12 | C#Cc1cnc2cc(F)c(OC(SC)C(=O)NC(C)(C#N)COC)cc2c1 (stereo not drawn) [Example 6] |  | ≥ 60 | ≥ 60 | ≥ 60 | ≥ 60 | ≥ 60 | ≥ 60 | ≥ 60 | ≥ 60 |  |  | 
13 | C#Cc1cnc2c(C)cc(OC(SC)C(=O)NC(C)(C)C#C)cc2c1 (stereo not drawn) [Example 7] |  | ≥ 60 | ≥ 60 |  | ≥ 60 |  | ≥ 60 | ≥ 60 | ≥ 60 | ≥ 60 | ≥ 60 | 
14 | C#Cc1cnc2c(C)cc(OC(SC)C(=O)NC(C)(C)C#CC)cc2c1 (stereo not drawn) [Example 8] |  | ≥ 60 | ≥ 60 |  | ≥ 60 |  | ≥ 60 | ≥ 60 | ≥ 60 | ≥ 60 | ≥ 60 | ≥ 60
15 | C#Cc1cnc2c(C)cc(OC(SC)C(=O)NC(C)(C)C#CCOC)cc2c1 (stereo not drawn) [Example 9] |  | ≥ 60 | ≥ 60 | ≥ 60 | ≥ 60 | ≥ 60 | ≥ 60 | ≥ 60 | ≥ 60 |  | ≥ 60 | 
16 | C#CCOCC#CC(C)(C)NC(=O)C(Oc1cc(C)c2ncc(C#C)cc2c1)SC (stereo not drawn) [Example 10] |  | ≥ 60 | ≥ 60 | ≥ 60 | ≥ 60 |  | ≥ 60 | ≥ 60 | ≥ 60 |  | ≥ 60 | 
17 | C#Cc1cnc2c(C)cc(OC(SC)C(=O)NC(C)(C#N)COC)cc2c1 (stereo not drawn) [Example 12] |  | ≥ 60 | ≥ 60 | ≥ 60 | ≥ 60 | ≥ 60 | ≥ 60 | ≥ 60 | ≥ 60 |  |  | 
18 | C#CCOCC(C)(COCC#C)NC(=O)C(Oc1ccc2ncc(C#C)cc2c1)SC (stereo not drawn) [Example 12c, 2-(3-ethynyl-quinolin-6-yloxy)-N-(1-methyl-2-prop-2-ynyloxy-1-prop-2-ynyloxymethyl-ethyl)-2-methylsulfanyl-acetamide] | 95 to 100 |  |  |  |  |  |  |  |  |  |  | 
19 | C#Cc1cnc2ccc(OC(SC)C(=O)NC(C)(C#N)CO)cc2c1 (stereo not drawn) [Example 12d, N-(1-cyano-2-hydroxy-1-methyl-ethyl)-2-(3-ethynyl-quinolin-6-yloxy)-2-methylsulfanyl-acetamide] | 78 to 80 |  |  |  |  |  |  |  |  |  |  | 
20 | C#Cc1cnc2c(C)cc(OC(SC)C(=O)NC(C)(C)COC)cc2c1 (stereo not drawn) [Example 13] |  | ≥ 60 | ≥ 60 | ≥ 60 | ≥ 60 | ≥ 60 | ≥ 60 | ≥ 60 | ≥ 60 | ≥ 60 | ≥ 60 | ≥ 60
21 | C#CCOCC(C)(C)NC(=O)C(Oc1cc(C)c2ncc(C#C)cc2c1)SC (stereo not drawn) [Example 14] |  | ≥ 60 | ≥ 60 | ≥ 60 | ≥ 60 | ≥ 60 | ≥ 60 | ≥ 60 | ≥ 60 | ≥ 60 | ≥ 60 | ≥ 60
22 | C#Cc1cnc2c(C)cc(OC(SC)C(=O)NC(C)(C)CO)cc2c1 (stereo not drawn) [Example 15] |  | ≥ 60 | ≥ 60 |  | ≥ 60 |  | ≥ 60 | ≥ 60 | ≥ 60 |  |  | 
23 | C#CCC(C)(C)NC(=O)C(Oc1cc(C)c2ncc(C#C)cc2c1)SC (stereo not drawn) [Example 16] |  | ≥ 60 | ≥ 60 | ≥ 60 | ≥ 60 | ≥ 60 | ≥ 60 | ≥ 60 | ≥ 60 | ≥ 60 | ≥ 60 | 
24 | C#CCC(C)(C)NC(=O)C(Oc1cc(Cl)c2ncc(C#C)cc2c1)SC (stereo not drawn) [Example 75] |  | ≥ 60 | ≥ 60 | ≥ 60 |  | ≥ 60 | ≥ 60 | ≥ 60 | ≥ 60 | ≥ 60 | ≥ 60 | ≥ 60
